SMILES strings stand for the structures.

Holding throughout (assay): DSF 100 kinase selectivity screen;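 further: compound tested at 20 µM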
What all share (format): binding

For assay [1], the target named is T1, ~100 representative kinases (Homo sapiens, UniProt O14733).
T1 construct: Recombinant protein kinase domains with a concentration of 2 μM
T1 sequence (O14733 1-419): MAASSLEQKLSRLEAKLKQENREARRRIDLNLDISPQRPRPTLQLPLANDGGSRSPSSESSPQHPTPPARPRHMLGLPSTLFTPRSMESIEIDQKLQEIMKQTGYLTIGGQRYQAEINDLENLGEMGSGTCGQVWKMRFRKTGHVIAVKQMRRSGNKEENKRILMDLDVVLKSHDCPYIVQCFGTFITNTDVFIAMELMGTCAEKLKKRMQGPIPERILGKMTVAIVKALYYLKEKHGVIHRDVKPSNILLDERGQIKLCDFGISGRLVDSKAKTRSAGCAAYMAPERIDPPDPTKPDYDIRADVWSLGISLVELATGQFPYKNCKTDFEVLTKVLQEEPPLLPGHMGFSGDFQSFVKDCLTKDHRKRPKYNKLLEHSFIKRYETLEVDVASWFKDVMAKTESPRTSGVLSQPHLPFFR
The conditions noted are these: protein MAP2K7; average of three replicates. The method, boiled down:
(§1)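 Each kinase domain, at 2 μM, is mixed with 20 μM test compound and SYPRO Orange in Hepes (20 mM, pH 7.5) with 500 mM NaCl. Temperature is then raised at 3°C/min and fluorescence-monitored unfolding yields the melting temperature change, ΔTm in degrees Celsius.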

Assay [2] addresses T2, ~100 representative kinases (Homo sapiens, UniProt P00519).
T2 construct: Recombinant protein kinase domains with a concentration of 2 μM
Conditions: Protein ABL1; average of three replicates. The procedure, abridged: as §1

Assay [3] concerns the target T3, ~100 representative kinases (Homo sapiens, UniProt P15056).
T3 construct: Recombinant protein kinase domains with a concentration of 2 μM
The conditions noted are these: Protein BRAF; average of three replicates. The procedure, abridged: as §1

For assay [4], the target named is T4, ~100 representative kinases (Homo sapiens, UniProt P22830).
T4 construct: Recombinant protein kinase domains with a concentration of 2 μM
T4 sequence (P22830 55-423): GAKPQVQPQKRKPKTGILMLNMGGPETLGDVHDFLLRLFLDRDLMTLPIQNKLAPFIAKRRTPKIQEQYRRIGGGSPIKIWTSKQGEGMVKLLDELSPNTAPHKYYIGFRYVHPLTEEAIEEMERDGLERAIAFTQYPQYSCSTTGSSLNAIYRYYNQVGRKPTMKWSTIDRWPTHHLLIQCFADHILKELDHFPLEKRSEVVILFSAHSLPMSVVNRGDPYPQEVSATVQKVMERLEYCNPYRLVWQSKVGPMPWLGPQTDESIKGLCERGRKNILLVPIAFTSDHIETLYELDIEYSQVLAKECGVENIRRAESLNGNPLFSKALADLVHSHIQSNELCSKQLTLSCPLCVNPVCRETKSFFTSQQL
The conditions noted are these: protein FECH; average of three replicates. The procedure, abridged: as §1

Assay [5] addresses T5, ~100 representative kinases (Homo sapiens, UniProt P48730).
T5 construct: Recombinant protein kinase domains with a concentration of 2 μM
Conditions: Protein CSNK1D; average of three replicates. The method, boiled down: as §1

The target in assay [6] is T6, ~100 representative kinases (Homo sapiens, UniProt P49841).
T6 construct: Recombinant protein kinase domains with a concentration of 2 μM
T6 sequence (P49841 whole entry, the tested form may be a part): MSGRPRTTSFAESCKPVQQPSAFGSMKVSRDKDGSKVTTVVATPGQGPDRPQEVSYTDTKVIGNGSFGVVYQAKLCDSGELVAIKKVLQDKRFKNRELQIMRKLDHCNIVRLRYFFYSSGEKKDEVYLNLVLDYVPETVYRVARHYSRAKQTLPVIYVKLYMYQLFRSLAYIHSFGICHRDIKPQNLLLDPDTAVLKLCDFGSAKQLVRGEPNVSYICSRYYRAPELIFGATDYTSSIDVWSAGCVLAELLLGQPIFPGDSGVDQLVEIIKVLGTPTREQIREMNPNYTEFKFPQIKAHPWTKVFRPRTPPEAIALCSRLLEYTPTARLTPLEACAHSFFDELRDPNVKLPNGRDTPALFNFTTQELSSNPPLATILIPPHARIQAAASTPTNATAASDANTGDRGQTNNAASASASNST
Conditions: protein GSK3B; average of three replicates. The method, boiled down: as §1

Assay [7] deals with T7, ~100 representative kinases (Homo sapiens, UniProt P51955).
T7 construct: Recombinant protein kinase domains with a concentration of 2 μM
T7 sequence (P51955 1-445): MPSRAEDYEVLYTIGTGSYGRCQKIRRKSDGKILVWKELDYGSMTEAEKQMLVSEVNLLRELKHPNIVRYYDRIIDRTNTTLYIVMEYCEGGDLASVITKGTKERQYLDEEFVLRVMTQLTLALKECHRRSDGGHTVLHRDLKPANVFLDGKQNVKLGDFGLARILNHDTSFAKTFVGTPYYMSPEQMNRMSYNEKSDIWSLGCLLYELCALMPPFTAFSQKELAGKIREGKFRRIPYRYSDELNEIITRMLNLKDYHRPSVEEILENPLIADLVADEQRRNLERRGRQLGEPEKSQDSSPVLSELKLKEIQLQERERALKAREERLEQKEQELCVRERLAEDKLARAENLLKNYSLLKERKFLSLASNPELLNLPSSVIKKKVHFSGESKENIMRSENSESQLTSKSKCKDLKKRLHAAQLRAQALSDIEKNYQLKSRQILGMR
Conditions: protein NEK2; average of three replicates. The procedure, abridged: as §1

For assay [8], the target named is T8, ~100 representative kinases (Homo sapiens, UniProt Q00536).
T8 construct: Recombinant protein kinase domains with a concentration of 2 μM
T8 sequence (Q00536 whole entry, the tested form may be a part): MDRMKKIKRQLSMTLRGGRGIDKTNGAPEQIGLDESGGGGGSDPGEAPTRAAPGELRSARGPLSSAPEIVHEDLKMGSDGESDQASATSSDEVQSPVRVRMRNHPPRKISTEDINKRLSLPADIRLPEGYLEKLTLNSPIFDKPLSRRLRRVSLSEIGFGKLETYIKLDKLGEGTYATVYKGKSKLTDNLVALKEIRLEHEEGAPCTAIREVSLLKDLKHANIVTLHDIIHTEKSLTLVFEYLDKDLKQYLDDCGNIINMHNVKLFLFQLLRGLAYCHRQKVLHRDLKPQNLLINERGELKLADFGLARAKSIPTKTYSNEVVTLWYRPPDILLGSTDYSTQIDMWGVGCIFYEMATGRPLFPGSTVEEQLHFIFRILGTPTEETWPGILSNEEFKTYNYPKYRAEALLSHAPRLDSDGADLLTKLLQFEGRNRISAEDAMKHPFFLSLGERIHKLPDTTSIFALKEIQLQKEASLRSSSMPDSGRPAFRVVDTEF
The conditions noted are these: protein PCTK1; average of three replicates. The procedure, abridged: as §1

Assay [9] deals with T9, ~100 representative kinases (Homo sapiens, UniProt Q13627).
T9 construct: Recombinant protein kinase domains with a concentration of 2 μM
The conditions noted are these: Protein DYRK1A; average of three replicates. The procedure, abridged:
as §1

Assay [10] has as its target T10, ~100 representative kinases (Homo sapiens, UniProt Q8TDX7).
T10 construct: Recombinant protein kinase domains with a concentration of 2 μM
The conditions noted are these: protein NEK7; average of three replicates. The procedure, abridged:
as §1

The target in assay [11] is T11, ~100 representative kinases (Homo sapiens, UniProt Q96NX5).
T11 construct: Recombinant protein kinase domains with a concentration of 2 μM
T11 sequence (Q96NX5 whole entry, the tested form may be a part): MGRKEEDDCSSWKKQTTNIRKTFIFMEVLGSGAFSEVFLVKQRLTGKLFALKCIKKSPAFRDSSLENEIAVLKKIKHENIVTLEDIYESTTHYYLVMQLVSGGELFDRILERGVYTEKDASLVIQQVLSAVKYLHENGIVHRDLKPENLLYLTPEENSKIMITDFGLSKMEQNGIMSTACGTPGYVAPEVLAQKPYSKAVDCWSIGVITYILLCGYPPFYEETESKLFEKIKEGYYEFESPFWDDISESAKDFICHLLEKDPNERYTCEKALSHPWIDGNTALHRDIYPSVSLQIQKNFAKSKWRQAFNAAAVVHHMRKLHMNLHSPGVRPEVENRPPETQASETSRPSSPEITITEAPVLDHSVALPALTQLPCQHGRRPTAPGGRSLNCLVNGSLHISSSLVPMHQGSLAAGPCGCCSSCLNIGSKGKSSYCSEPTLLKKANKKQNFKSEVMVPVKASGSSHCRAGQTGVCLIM
The conditions noted are these: Protein CAMK1G; average of three replicates. The method, boiled down:
as §1

In assay [12] the target is T12, ~100 representative kinases (Homo sapiens, UniProt Q96SB4).
T12 construct: Recombinant protein kinase domains with a concentration of 2 μM
T12 sequence (Q96SB4 whole entry, the tested form may be a part): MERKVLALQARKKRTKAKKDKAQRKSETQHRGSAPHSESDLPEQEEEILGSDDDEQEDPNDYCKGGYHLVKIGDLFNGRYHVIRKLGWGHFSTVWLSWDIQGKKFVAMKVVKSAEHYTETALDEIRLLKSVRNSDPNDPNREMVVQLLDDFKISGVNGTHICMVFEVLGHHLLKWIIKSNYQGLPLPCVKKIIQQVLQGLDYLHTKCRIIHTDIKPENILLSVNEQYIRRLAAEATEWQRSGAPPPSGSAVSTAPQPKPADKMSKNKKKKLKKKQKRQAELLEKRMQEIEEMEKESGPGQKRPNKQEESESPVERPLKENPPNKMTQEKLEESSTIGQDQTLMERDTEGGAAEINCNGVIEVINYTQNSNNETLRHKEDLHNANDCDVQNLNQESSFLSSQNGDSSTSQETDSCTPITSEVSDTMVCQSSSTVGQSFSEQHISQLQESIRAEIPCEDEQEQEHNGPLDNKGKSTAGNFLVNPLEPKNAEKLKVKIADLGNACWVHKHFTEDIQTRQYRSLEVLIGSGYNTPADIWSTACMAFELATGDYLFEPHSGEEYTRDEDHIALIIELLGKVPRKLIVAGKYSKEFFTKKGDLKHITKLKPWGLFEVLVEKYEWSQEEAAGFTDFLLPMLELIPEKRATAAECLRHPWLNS
The conditions noted are these: Protein SRPK1; DSF; average of three replicates. The method, boiled down: as §1

Assay [13] has as its target T13, ~100 representative kinases (Homo sapiens, UniProt Q99986).
T13 construct: Recombinant protein kinase domains with a concentration of 2 μM
T13 sequence (Q99986 1-396): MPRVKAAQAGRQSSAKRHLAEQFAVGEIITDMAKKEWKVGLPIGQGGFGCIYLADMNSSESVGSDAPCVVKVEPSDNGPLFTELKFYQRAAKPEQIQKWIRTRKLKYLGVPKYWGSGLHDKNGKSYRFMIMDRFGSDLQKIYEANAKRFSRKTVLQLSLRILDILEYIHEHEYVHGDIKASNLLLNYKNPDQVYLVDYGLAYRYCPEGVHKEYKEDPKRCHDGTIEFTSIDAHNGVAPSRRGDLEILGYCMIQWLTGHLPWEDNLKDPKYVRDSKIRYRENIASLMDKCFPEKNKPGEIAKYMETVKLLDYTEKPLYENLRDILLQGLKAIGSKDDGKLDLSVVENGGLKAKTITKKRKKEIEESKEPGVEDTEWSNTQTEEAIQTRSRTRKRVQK
Conditions: Protein VRK1; DSF; average of three replicates. The method, boiled down:
as §1

T3 sequence (P15056 whole entry, the tested form may be a part): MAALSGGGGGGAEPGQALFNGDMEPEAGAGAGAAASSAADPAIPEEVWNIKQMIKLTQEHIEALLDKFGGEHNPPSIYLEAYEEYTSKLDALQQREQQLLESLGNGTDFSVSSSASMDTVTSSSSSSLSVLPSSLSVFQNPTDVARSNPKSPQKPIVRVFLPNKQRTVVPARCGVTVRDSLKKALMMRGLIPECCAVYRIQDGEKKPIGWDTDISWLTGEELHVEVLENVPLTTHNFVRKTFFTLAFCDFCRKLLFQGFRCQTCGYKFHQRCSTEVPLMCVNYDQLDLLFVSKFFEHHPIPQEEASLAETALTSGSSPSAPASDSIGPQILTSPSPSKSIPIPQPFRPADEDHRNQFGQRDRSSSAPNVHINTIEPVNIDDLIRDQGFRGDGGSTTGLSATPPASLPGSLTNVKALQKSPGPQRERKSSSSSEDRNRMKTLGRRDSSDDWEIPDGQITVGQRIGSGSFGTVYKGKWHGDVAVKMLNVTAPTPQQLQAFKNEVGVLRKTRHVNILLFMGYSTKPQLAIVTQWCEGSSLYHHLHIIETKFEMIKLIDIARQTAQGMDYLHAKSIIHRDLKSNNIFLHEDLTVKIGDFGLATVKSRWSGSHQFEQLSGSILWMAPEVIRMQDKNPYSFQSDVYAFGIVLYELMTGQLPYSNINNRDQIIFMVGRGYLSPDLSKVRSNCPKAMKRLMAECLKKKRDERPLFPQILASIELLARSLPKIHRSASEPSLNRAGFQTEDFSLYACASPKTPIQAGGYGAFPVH
T10 sequence (Q8TDX7 whole entry, the tested form may be a part): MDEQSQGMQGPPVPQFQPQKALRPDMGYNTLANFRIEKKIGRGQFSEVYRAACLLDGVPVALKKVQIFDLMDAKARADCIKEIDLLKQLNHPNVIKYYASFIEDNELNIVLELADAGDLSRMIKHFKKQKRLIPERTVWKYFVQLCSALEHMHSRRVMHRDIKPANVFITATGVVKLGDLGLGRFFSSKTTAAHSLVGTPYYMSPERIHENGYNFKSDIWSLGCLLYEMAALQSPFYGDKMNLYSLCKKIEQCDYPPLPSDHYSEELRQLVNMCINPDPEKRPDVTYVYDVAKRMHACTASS
T2 sequence (P00519 whole entry, the tested form may be a part): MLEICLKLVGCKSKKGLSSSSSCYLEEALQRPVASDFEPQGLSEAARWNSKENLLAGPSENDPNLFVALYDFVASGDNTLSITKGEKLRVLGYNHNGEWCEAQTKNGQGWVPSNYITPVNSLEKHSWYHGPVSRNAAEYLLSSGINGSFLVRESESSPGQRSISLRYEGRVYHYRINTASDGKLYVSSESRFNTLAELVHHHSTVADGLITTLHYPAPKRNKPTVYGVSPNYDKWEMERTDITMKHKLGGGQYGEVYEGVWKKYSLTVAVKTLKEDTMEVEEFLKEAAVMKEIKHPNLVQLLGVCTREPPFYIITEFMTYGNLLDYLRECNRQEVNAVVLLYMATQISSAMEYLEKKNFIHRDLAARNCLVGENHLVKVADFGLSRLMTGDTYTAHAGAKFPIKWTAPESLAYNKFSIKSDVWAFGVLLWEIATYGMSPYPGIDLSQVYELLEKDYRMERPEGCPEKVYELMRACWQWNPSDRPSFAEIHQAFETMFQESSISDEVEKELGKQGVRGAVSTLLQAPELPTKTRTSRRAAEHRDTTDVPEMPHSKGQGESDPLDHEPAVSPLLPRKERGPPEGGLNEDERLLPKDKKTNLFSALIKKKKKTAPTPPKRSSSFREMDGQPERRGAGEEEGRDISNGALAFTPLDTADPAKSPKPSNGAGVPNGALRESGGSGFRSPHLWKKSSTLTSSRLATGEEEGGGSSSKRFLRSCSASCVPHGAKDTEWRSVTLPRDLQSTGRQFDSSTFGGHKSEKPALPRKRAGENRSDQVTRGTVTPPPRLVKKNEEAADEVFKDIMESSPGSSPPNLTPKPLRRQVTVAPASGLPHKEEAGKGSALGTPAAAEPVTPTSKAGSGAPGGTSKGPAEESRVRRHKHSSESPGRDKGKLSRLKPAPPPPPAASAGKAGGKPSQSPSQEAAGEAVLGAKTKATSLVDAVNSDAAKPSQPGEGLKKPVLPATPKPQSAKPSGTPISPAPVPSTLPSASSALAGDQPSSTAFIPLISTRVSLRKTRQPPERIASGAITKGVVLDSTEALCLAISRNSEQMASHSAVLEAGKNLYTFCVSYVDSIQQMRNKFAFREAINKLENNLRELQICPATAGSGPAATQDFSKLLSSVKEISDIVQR
T5 sequence (P48730 whole entry, the tested form may be a part): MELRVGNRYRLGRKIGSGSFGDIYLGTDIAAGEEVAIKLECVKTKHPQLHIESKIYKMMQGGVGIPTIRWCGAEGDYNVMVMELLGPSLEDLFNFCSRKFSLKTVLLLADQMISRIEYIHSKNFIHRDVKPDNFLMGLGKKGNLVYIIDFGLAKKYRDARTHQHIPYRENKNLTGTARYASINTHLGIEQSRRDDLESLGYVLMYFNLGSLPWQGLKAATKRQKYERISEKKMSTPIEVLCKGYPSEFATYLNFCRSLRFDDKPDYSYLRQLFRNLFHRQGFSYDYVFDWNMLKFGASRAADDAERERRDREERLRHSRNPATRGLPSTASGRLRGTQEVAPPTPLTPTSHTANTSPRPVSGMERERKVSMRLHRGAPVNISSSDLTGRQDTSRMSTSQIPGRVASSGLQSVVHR

On to `O=C(Nc1cccc(-c2c[nH]c3ncnc(N4CCOCC4)c23)c1)C1(C(=O)Nc2ccc(F)cc2F)CC1` [Compound 23], for which the dTm was found to be 3.10 K in assay [1]; 1.35 K in [2]; 9.00 K in assay [3]; 0.12 K in [4]; 1.02 K in assay [5]; 3.90 K in assay [6]. In addition, the dTm in [7] was found to be 1.54 K; in assay [8], 4.13 K; in [9] it was 1.28 K; in assay [10] it was 0.03 K; in [11], 1.64 K; in assay [12], 6.35 K. The dTm in assay [13] was determined as 0.51 K.
With `Cc1cc(F)ccc1NC(=O)C1(C(=O)Nc2cccc(-c3c[nH]c4ncnc(N5CCOCC5)c34)c2)CC1` [Compound 24], the dTm in assay [1] was determined as 3.14 K; in assay [2], 1.15 K; in assay [3], 8.44 K; in assay [4] it was 0.38 K; in [5], 1.47 K; in [6], 4.64 K. For the same compound, the dTm in [7] was found to be 1.66 K; in assay [8], 3.77 K; in assay [9], 0.41 K; in [10], 0.20 K; in assay [11], 0.49 K; in assay [12], 3.79 K. Moreover, the dTm in assay [13] was 0.44 K.
Consider `O=C(Nc1cccc(-c2c[nH]c3ncnc(N4CCOCC4)c23)c1)C1(C(=O)Nc2cc(Br)c(F)cc2F)CC1` [Compound 25], for which the dTm is 3.02 K in [1]; 1.76 K in assay [2]; 11.56 K in assay [3]; -0.79 K in [4]; -0.29 K in assay [5]; 1.43 K in assay [6]. The dTm was -3.69 K in assay [7]; -0.86 K in assay [8]; 0.31 K in assay [9]; 0.26 K in assay [10]; 4.91 K in [11]; 4.56 K in assay [12]. The dTm in assay [13] was determined as 1.24 K.
As for `O=C(Nc1cccc(-c2c[nH]c3ncnc(N4CCOCC4)c23)c1)C1(C(=O)Nc2ccc(F)c(Br)c2F)CC1` [Compound 26], the dTm in assay [1] was found to be 3.31 K; in assay [2] it was 1.83 K; in assay [3], 9.02 K; in assay [4] it was 0.09 K; in assay [5], 0.95 K; in assay [6], 7.56 K. The dTm was -4.02 K in [7]; -1.22 K in assay [8]; 0.19 K in [9]; -0.33 K in [10]; 4.69 K in assay [11]; 4.06 K in [12]. In assay [13], this compound registered a dTm of 1.02 K.
Consider `O=C(Nc1cc(F)cc(Br)c1)C1(C(=O)Nc2cccc(-c3c[nH]c4ncnc(N5CCOCC5)c34)c2)CC1` [Compound 27], for which the dTm in assay [1] is reported as 3.41 K; in assay [2], 1.02 K; in assay [3], 6.66 K; in [4], -2.87 K; in assay [5], -0.55 K; in assay [6], 3.16 K. Moreover, the dTm in assay [7] was -2.11 K; in assay [8] it was 0.18 K; in [9], -0.23 K; in [10], -0.08 K; in [11], 3.15 K; in [12], -0.47 K. Besides, the dTm in assay [13] turned out to be 1.05 K.
`CC(C)(C)c1cc(NC(=O)Nc2cccc(-c3c[nH]c4ncnc(N5CCOCC5)c34)c2)n(-c2ccc3ncccc3c2)n1` [Compound 28]: the dTm is 3.13 K in [1]; 7.77 K in assay [2]; 32.83 K in assay [3]; 1.86 K in assay [4]; 1.22 K in assay [5]; 13.25 K in [6]. Also, the dTm was 2.21 K in assay [7]; 15.55 K in [8]; 7.41 K in assay [9]; 2.34 K in [10]; 6.01 K in [11]; 16.05 K in [12]. Moreover, the dTm in assay [13] is listed as 1.63 K.
Regarding `CCSc1nc(NC)c2c(-c3cccc(NC(=O)Nc4cc(C(C)(C)C)nn4-c4ccc(C)cc4)c3)c[nH]c2n1` [Compound 32], the dTm in assay [1] is 0.27 K; in assay [2], 2.07 K; in [3], 0.90 K; in assay [4], -4.54 K; in assay [5], 0.85 K; in assay [6] it was -0.49 K. The dTm is 0.87 K in assay [7]; 3.77 K in assay [8]; 0.57 K in assay [9]; -0.18 K in assay [10]; 0.27 K in assay [11]; 0.80 K in assay [12]. Moreover, the dTm in assay [13] is reported as -0.68 K.

The values are drawn from paper PMC12136037, “Type II kinase inhibitors that target Parkinson’s disease–associated LRRK2” (Science Advances, 2025).
